Data set [1] has as its system rat uterine contractility. Description: rat uterine contractility assay (bioassay of recombined relaxin peptides). Type of data set: cell-based. As to conditions: for Recombination Yield (by BIOASSAY), actual combination yield based on the B chain: combination of A and B chains, yield measured by bioassay; for Recombination Yield (by BIOASSAY), recalculated on the basis of 100% yield for the recombined natural A22 and B28 chains: relative to recombined natural A22 + B28 = 100%. As for the experimental part:
The recombination of the relaxin peptide chains was monitored by HPLC and radioimmunoassay using an antibody raised to native porcine relaxin A22B29 and I125 Bolton-Hunter labelled A22B29 tracer (16). The biological activity of the recombined products was assessed using the rat uterine contractility assay (18).
The biological activity of the synthetic relaxin peptides was tested in the rat uterine contractility assay (18).

Data set [2] can be described thus: solubility behaviour of relaxin B chain peptides in aqueous solution. It is filed as physicochemical. To be noted: crude synthetic B chain. The source says: We have carried out research into the chemical synthesis of relaxin and its structural analogues as part of a systematic study of the structure-function relationships in the hormone molecule. The purified separate chains of pig relaxin have been obtained in approximately 10% yield (based on crude). The major impurities in the synthetic peptides appear to have arisen through side-reactions of the cysteine residues occurring during the HF cleavage step. In more recent syntheses improved yields have been obtained using the HF stable S-ethyl mercapto protecting group for cysteine. […] Column chromatography on Sephadex, cellulose, polyamide or polystyrene resins results in virtually a complete loss of peptide by irreversible absorption (16). These properties have made purification of synthetic relaxin B chain peptides and their coupling to A chain particularly difficult.
As shown by FIG. 3(c), the CD spectra indicate that shortening to 25 residues results in a change of from the beta-configuration to an unordered conformation. This conformational change is reflected in an enhanced solubility of the peptide in aqueous solution, a loss of the adsorptive behaviour and an improvement in the combination yield with the A chain. Using the above-described method the combination yield rises to 10%. […]

Positions of bridges follow the written chain, without caps; N, C: chain ends. Residues, ends and D or L forms follow the SMILES beside them. Chains are numbered I, II in the order given. No end group written: not given here.

Results on 3 molecules are retold here after US4656249A, “Peptides with relaxin activity” (Howard Florey Institute of Experimental Physiology and …, priority 1982, dated 1987).

With `CC[C@H](C)[C@@H]1NC(=O)[C@H](CC(=O)O)NC(=O)[C@H](CCCCN)NC(=O)[C@H](CCCNC(=N)N)NC(=O)[C@H]([C@@H](C)CC)NC(=O)[C@@H]2CSSC[C@H](NC(=O)[C@H](CCCCN)NC(=O)[C@H](CCC(=O)O)NC(=O)[C@H](CO)NC(=O)[C@@H](N)CC(C)C)C(=O)N[C@@H](CSSC[C@H](NC(=O)[C@H](C)NC(=O)[C@H](CCCCN)NC(=O)[C@@H](NC(=O)[C@H](Cc3ccccc3)NC(=O)[C@H](CC(=O)O)NC(=O)[C@H](CC(N)=O)NC(C)=O)[C@@H](C)CC)C(=O)NCC(=O)N[C@@H](CCCNC(=N)N)C(=O)N[C@@H](CCC(=O)O)C(=O)N[C@@H](CC(C)C)C(=O)N[C@@H](C(C)C)C(=O)N[C@@H](CCCNC(=N)N)C(=O)N[C@@H](CC(C)C)C(=O)N[C@@H](Cc3c[nH]c4ccccc34)C(=O)N[C@@H](C(C)C)C(=O)N[C@@H](CCC(=O)O)C(=O)N[C@@H]([C@@H](C)CC)C(=O)N[C@H](C(=O)NCC(N)=O)CSSC[C@@H](C(=O)O)NC(=O)[C@H](CC(C)C)NC(=O)[C@H](CCCNC(=N)N)NC(=O)[C@H](C)NC1=O)C(=O)N[C@@H](CCC(N)=O)C(=O)N[C@@H](C(C)C)C(=O)NCC(=O)N2` [SA (4-22) SB[N--acetyl](4-23)NH2] (I: Ac-NDFIKACGRELVRLWVEICG-NH2 / II: H-LSEKCCQVGCIRKDIARLC-OH; disulfide I:7-II:6, I:19-II:19, II:5-II:10), in data set [1], the “Recombination Yield (by BIOASSAY), actual combination yield based on the B chain” value is given as 1.3%; the “Recombination Yield (by BIOASSAY), recalculated on the basis of 100% yield for the recombined natural A22 and B28 chains” value was 5%.

With “B(1-29): synthetic porcine relaxin B chain of 29 residues (B chain of CMa')”, the “pH at which the peptide is soluble” value in data set [2] is given as over 5.5.

As for “I: RMTLSEKCCQVGCIRKDIARLC / II: Ac-NDFIKACGRELVRLWVEICG-NH2 (disulfide I:8-I:13, I:9-II:7, I:22-II:19) [SA (1-22) SB[N--acetyl](4-23)NH2]”, in data set [1], the “Recombination Yield (by BIOASSAY), actual combination yield based on the B chain” value is 2.4%; the “Recombination Yield (by BIOASSAY), recalculated on the basis of 100% yield for the recombined natural A22 and B28 chains” value is recorded as 10%.
